Test results as given in US20080207527A1, “Bicyclic Compounds Which Inhibit Beta-Secretase Activity and Methods of Use Thereof” (CoMentis, Inc., priority 2004, published 2008).

Columns and labels:
[1] = target: memapsin 2 (Homo sapiens, UniProt P56817); assay: Inhibition of memapsin 2 beta-secretase activity toward fluorogenic substrate FS-2; assay type: biochemical; settings: pH 4, 37° C., 20 minutes pre-incubation, read-out: M2 Ki
Experimental: Potency of compounds were determined by measurement of their inhibition of memapsin 2 activity toward a fluorescent substrate. […] Briefly, assays were performed at pH 4, 37° C., by pre-incubation of memapsin 2 enzyme with compound for 20 minutes. Activity measure was initiated by addition of a fluorogenic substrate FS-2 (Bachem Americas, Torrance, Calif.). Fluorescent signal increase over time was measured as a rate of hydrolysis of the peptide substrate.

[2] = target: Cathepsin D (Homo sapiens, UniProt P07339); assay: Inhibition of cathepsin D activity (substrate peptide hydrolysis, MALDI-TOF); assay type: biochemical; settings: pH 4.1, 37 degrees C., read-out: Cath D Ki
[3] = target: T1, memapsin 1 (Homo sapiens, UniProt Q9Y5Z0); assay: Inhibition of memapsin 1 beta-secretase activity (substrate peptide hydrolysis, MALDI-TOF); assay type: biochemical; settings: pH 4.1, 37 degrees C., read-out: M1 Ki
T1 sequence (Q9Y5Z0 63-518): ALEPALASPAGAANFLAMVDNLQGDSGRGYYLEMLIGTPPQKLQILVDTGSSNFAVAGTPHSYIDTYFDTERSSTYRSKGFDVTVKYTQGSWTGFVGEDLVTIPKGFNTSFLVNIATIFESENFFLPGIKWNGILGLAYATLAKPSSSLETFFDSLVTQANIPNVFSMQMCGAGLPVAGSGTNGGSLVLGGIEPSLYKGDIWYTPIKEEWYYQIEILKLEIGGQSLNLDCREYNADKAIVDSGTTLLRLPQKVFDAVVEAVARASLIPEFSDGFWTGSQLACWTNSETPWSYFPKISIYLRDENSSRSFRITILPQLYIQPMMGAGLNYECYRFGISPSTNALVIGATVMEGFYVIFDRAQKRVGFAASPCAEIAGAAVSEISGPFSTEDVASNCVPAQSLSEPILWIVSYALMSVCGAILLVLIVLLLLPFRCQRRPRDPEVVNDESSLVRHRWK

[4] = tested on: Aβ production; assay: Cellular Aβ IC50 determination (Aβ40 sandwich ELISA); assay type: cell-based; settings: Cricetulus griseus, Chinese hamster ovary cells over-expressing human APP695 with London and Swedish mutations, 24 h
Experimental: The potency of compounds against memapsin 2 activity was determined in a cellular assay of Aβ production. […] Chinese hamster ovary cells that over-express human APP695 with the London and Swedish mutations were seeded in multi-well plates at 10% confluency. Compounds were dissolved in DMSO to concentrations near 1 mM, and diluted into culture media to a final concentration near 4 μM (final 0.4% DMSO). Compounds were diluted serially and applied to cells in multi-well plates 48 h after seeding. Incubation was continued in 5% CO2 at 37 degrees C. for 24 h. Aliquots were removed and assayed for Aβ40 content using a sandwich ELISA (BioSource International). Amount of Aβ40 over the range of concentration of compounds, relative to control incubations, were fit to a 4-parameter IC50 model.

Chain of memapsin 2 (P56817 46-501): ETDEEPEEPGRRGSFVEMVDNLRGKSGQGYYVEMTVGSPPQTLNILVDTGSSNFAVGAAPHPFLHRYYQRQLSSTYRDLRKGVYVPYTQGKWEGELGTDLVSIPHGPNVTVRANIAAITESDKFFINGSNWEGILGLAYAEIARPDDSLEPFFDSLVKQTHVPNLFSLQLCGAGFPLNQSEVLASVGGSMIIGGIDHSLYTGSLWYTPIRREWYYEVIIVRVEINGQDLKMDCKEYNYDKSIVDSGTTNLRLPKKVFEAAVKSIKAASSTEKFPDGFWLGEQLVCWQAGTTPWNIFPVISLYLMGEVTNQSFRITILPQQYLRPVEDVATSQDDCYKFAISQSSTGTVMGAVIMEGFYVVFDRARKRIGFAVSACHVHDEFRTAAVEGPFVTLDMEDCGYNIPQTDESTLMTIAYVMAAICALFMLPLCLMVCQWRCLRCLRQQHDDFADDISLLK
Chain of Cathepsin D (P07339 65-412, species assumed): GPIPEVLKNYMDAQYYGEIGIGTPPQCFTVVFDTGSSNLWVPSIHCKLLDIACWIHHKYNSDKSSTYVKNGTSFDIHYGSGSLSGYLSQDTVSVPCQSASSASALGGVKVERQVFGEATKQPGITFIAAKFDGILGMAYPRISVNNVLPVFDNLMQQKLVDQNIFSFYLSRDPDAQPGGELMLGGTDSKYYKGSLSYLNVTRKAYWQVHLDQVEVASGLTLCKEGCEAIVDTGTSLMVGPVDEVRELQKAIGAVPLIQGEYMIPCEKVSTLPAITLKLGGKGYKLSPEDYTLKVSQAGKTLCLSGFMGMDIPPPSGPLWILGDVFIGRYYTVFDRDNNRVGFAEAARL

| SMILES | Ki [1] [µM] | Ki [2] [µM] | Ki [3] [µM] | IC50 [4] [µM] |
| --- | --- | --- | --- | --- |
| CC(C)CNC(=O)C(NC(=O)C(C)CC(O)C(CC(C)C)NC(=O)c1cccc(C(=O)N(C)Cc2nccn2C)c1)C(C)C (stereo not shown) [N1-(5-hydroxy-8-(1-(isobutylamino)-3-methyl-1-oxobutan-2-ylamino)-2,7-dimethyl-8-oxooctan-4-yl)-N3-methyl-N3-((1-methyl-1H-imidazol-2-yl)methyl)isophthalamide] | > 5 | 2 to 5 | > 5 |  |
| Cc1nc(C(C)NC(=O)c2cc(C(=O)NC(CC(C)C)C(O)CC(C)C(=O)NC(C(=O)NC(C)C)C(C)C)cc(N(C)S(C)(=O)=O)c2)c(C)o1 (stereo not shown) [N1-(1-(2,5-dimethyloxazol-4-yl)ethyl)-N3-(5-hydroxy-8-(1-(isopropylamino)-3-methyl-1-oxobutan-2-ylamino)-2,7-dimethyl-8-oxooctan-4-yl)-5-(N-methylmethylsulfonamido)isophthalamide] | < 0.405 | 0.405 to 2 |  | 10 to 20 |
| Cc1csc(CNC(=O)c2cccc(C(=O)N[C@@H](CC(C)C)[C@@H](O)C[C@@H](C)C(=O)N[C@H](C(=O)NCC(C)C)C(C)C)n2)n1 [N2-(5-hydroxy-8-(1-(isobutylamino)-3-methyl-1-oxobutan-2-ylamino)-2,7-dimethyl-8-oxooctan-4-yl)-N6-((4-methylthiazol-2-yl)methyl)pyridine-2,6-dicarboxamide] | 2 to 5 | > 5 |  | > 20 |
| CCCNC(=O)c1cc(C(=O)NC(CC(C)C)C(O)CC(C)C(=O)NC(C(=O)NC(C)C)C(C)C)cc(N(C)S(C)(=O)=O)c1 (stereo not shown) [N1-(5-hydroxy-8-(1-(isopropylamino)-3-methyl-1-oxobutan-2-ylamino)-2,7-dimethyl-8-oxooctan-4-yl)-5-(N-methylmethylsulfonamido)-N3-propylisophthalamide] | < 0.405 | 0.405 to 2 |  | < 5 |
| CC(C)CNC(=O)C(NC(=O)C(C)CC(O)C(CC(C)C)NC(=O)c1cc(C(=O)NC(C)c2ccccc2)cc(N(C)C(=O)OC2CCOC2)c1)C(C)C (stereo not shown) [tetrahydrofuran-3-yl 3-(5-hydroxy-8-(1-(isobutylamino)-3-methyl-1-oxobutan-2-ylamino)-2,7-dimethyl-8-oxooctan-4-ylcarbamoyl)-5-(1-phenylethylcarbamoyl)phenyl(methyl)carbamate] | 0.405 to 2 |  |  | > 20 |
| CC(C)CNC(=O)C(NC(=O)C(C)CC(O)C(CC(C)C)NC(=O)c1cncc(C(=O)N(C)Cc2cccnc2)c1)C(C)C (stereo not shown) [N3-(5-hydroxy-8-(1-(isobutylamino)-3-methyl-1-oxobutan-2-ylamino)-2,7-dimethyl-8-oxooctan-4-yl)-N5-methyl-N5-(pyridin-3-ylmethyl)pyridine-3,5-dicarboxamide] | 0.405 to 2 |  |  | > 20 |
| CC(C)CNC(=O)C(NC(=O)C(C)CC(O)C(CC(C)C)NC(=O)c1cc(C(=O)N(C)Cc2ccncc2)cc(N(C)S(C)(=O)=O)c1)C(C)C (stereo not shown) [N1-(5-hydroxy-8-(1-(isobutylamino)-3-methyl-1-oxobutan-2-ylamino)-2,7-dimethyl-8-oxooctan-4-yl)-N3-methyl-5-(N-methylmethylsulfonamido)-N3-(pyridin-4-ylmethyl)isophthalamide] | < 0.405 |  |  | > 20 |
| Cc1nc(CNC(=O)c2cc(C(=O)NC(CC(C)C)C(O)CC(C)C(=O)NC(C(=O)NC(C)C)C(C)C)cc(N(C)S(C)(=O)=O)c2)c(C)o1 (stereo not shown) [N1-((2,5-dimethyloxazol-4-yl)methyl)-N3-(5-hydroxy-8-(1-(isopropylamino)-3-methyl-1-oxobutan-2-ylamino)-2,7-dimethyl-8-oxooctan-4-yl)-5-(N-methylmethylsulfonamido)isophthalamide] | < 0.405 | < 0.405 |  | < 5 |
| CC(C)CC(NC(=O)c1cc(C(=O)NC(C)c2ccccc2)cc(N(C)S(C)(=O)=O)c1)C(O)CC(C)C(=O)NC(C)C (stereo not shown) [N1-(5-hydroxy-8-(isopropylamino)-2,7-dimethyl-8-oxooctan-4-yl)-5-(N-methylmethylsulfonamido)-N3-(1-phenylethyl)isophthalamide] | 0.405 to 2 |  | 0.405 to 2 | > 20 |
| CC(C)CNC(=O)C(NC(=O)C(C)CC(O)C(CC(C)C)NC(=O)c1cc(C(=O)NC2CCCC2)cc(N(C)S(C)(=O)=O)c1)C(C)C (stereo not shown) [N1-cyclopentyl-N3-(5-hydroxy-8-(1-(isobutylamino)-3-methyl-1-oxobutan-2-ylamino)-2,7-dimethyl-8-oxooctan-4-yl)-5-(N-methylmethylsulfonamido)isophthalamide] | < 0.405 |  |  | < 5 |
| CC(C)CNC(=O)C(NC(=O)C(C)CC(O)C(CC(C)C)NC(=O)c1cccc(C(=O)N(C)Cc2ccccc2)c1)C(C)C (stereo not shown) [N1-benzyl-N3-(5-hydroxy-8-(1-(isobutylamino)-3-methyl-1-oxobutan-2-ylamino)-2,7-dimethyl-8-oxooctan-4-yl)-N1-methylisophthalamide] | < 0.405 |  |  | > 20 |
| CC(C)CNC(=O)C(NC(=O)C(C)CC(O)C(CC(C)C)NC(=O)c1cccc(C(=O)N(C)Cc2cccc(O)c2)c1)C(C)C (stereo not shown) [N1-(5-hydroxy-8-(1-(isobutylamino)-3-methyl-1-oxobutan-2-ylamino)-2,7-dimethyl-8-oxooctan-4-yl)-N3-(3-hydroxybenzyl)-N3-methylisophthalamide] | 0.405 to 2 |  |  | > 20 |

The remaining lines, values ahead:

| Ki [1] [µM] | Ki [2] [µM] | Ki [3] [µM] | IC50 [4] [µM] | SMILES |
| --- | --- | --- | --- | --- |
| < 0.405 | < 0.405 | 0.405 to 2 |  | Cc1nc(CN(C)C(=O)c2cccc(C(=O)NC(CC(C)C)C(O)CC(C)C(=O)NC(C(=O)NCC(C)C)C(C)C)c2)c(C)o1 (stereo not shown) [N1-((2,5-dimethyloxazol-4-yl)methyl)-N3-(5-hydroxy-8-(1-(isobutylamino)-3-methyl-1-oxobutan-2-ylamino)-2,7-dimethyl-8-oxooctan-4-yl)-N1-methylisophthalamide] |
| < 0.405 |  |  | > 20 | Cc1csc(CN(C)C(=O)c2cccc(C(=O)NC(CC(C)C)C(O)CC(C)C(=O)NC(C(=O)NCC(C)C)C(C)C)n2)n1 (stereo not shown) [N2-(5-hydroxy-8-(1-(isobutylamino)-3-methyl-1-oxobutan-2-ylamino)-2,7-dimethyl-8-oxooctan-4-yl)-N6-methyl-N6-((4-methylthiazol-2-yl)methyl)pyridine-2,6-dicarboxamide] |
| < 0.405 |  |  | > 20 | Cc1ccc(CN(C)C(=O)c2cccc(C(=O)NC(CC(C)C)C(O)CC(C)C(=O)NC(C(=O)NCC(C)C)C(C)C)c2)o1 (stereo not shown) [N1-(5-hydroxy-8-(1-(isobutylamino)-3-methyl-1-oxobutan-2-ylamino)-2,7-dimethyl-8-oxooctan-4-yl)-N3-methyl-N3-((5-methylfuran-2-yl)methyl)isophthalamide] |
| < 0.405 |  |  | > 20 | CC(C)CC(NC(=O)c1cc(C(=O)NC(C)c2ccccc2)cc(N(C)S(C)(=O)=O)c1)C(O)CC(N)C(=O)NC(C(=O)NC(C)C)C(C)C (stereo not shown) [N1-(7-amino-5-hydroxy-8-(1-(isopropylamino)-3-methyl-1-oxobutan-2-ylamino)-2-methyl-8-oxooctan-4-yl)-5-(N-methylmethylsulfonamido)-N3-(1-phenylethyl)isophthalamide] |
| < 0.405 | < 0.405 | < 0.405 |  | CCCN(CCC)C(=O)c1cccc(C(=O)N[C@@H](CC(C)C)[C@@H](O)C[C@@H](C)C(=O)NC(C(=O)NCC(C)C)C(C)C)c1 (stereo in doubt) [N1-(5-hydroxy-8-(1-(isobutylamino)-3-methyl-1-oxobutan-2-ylamino)-2,7-dimethyl-8-oxooctan-4-yl)-N3,N3-dipropylisophthalamide] |
| < 0.405 |  |  | 5 to 10 | CNS(=O)(=O)c1cc(C(=O)NC(C)c2ccccc2)cc(C(=O)NC(CC(C)C)C(O)CC(C)C(=O)NC(C(=O)NCC(C)C)C(C)C)c1 (stereo not shown) [N1-(5-hydroxy-8-(1-(isobutylamino)-3-methyl-1-oxobutan-2-ylamino)-2,7-dimethyl-8-oxooctan-4-yl)-5-(N-methylsulfamoyl)-N3-(1-phenylethyl)isophthalamide] |
| < 0.405 |  |  | 5 to 10 | Cc1csc(CN(C)C(=O)c2cncc(C(=O)NC(CC(C)C)C(O)CC(C)C(=O)NC(C(=O)NCC(C)C)C(C)C)c2)n1 (stereo not shown) [N3-(5-hydroxy-8-(1-(isobutylamino)-3-methyl-1-oxobutan-2-ylamino)-2,7-dimethyl-8-oxooctan-4-yl)-N5-methyl-N5-((4-methylthiazol-2-yl)methyl)pyridine-3,5-dicarboxamide] |
